# US9920357B2, “Systems and methods for identifying cosmetic agents for hair/scalp care compositions” (The Procter & Gamble Company, priority 2012, dated 2018)
# Columns and labels:
# hair count = experiment: Clinical studies of hair count; assay type: in vivo
# MAOB [1] = experiment: MAOB reporter assay; assay type: cell-based; conditions: active = >=60% inhibition and dose response
# Protocol: (§1) Affy signatures yielded 60 materials that were plated and provided for evaluation in a MAOB enzyme inhibition assay and 46 pure material were tested in a MAOB reporter assay.
# MAOB [2] = target: T1, MAOB (Homo sapiens, UniProt P27338); experiment: MAOB enzyme inhibition assay; assay type: biochemical; conditions: active = >=40% inhibition and dose response
# T1 sequence (P27338 1-520): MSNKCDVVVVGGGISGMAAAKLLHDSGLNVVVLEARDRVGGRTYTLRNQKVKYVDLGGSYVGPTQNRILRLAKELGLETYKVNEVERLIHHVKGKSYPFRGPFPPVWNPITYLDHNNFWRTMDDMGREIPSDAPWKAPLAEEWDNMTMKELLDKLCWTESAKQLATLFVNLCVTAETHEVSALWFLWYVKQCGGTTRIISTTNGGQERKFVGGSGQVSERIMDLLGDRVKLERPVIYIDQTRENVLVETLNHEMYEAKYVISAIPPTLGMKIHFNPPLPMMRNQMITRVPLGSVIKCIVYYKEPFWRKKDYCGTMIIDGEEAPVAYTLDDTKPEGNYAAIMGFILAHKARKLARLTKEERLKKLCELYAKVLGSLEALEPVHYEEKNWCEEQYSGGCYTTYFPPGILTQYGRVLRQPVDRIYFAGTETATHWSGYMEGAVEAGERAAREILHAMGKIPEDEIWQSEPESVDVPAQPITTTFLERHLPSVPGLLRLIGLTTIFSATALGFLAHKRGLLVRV
# Protocol: as §1
SMILES,hair count (hair count),activity in MAOB reporter assay (MAOB [1]),activity in MAOB enzyme inhibition assay (MAOB [2])
O=c1cc(-c2ccc(O)cc2)oc2cc(O)cc(O)c12 [Apigenin],significant hair count benefit,–,–
CCN(CC)CCCC(C)Nc1c2ccc(Cl)cc2nc2ccc(OC)cc12 (stereo not drawn) [quinacrine],–,active and hit,active and hit
